Assay results from US11684614B2, “Formulations of hydroxypyridonate actinide/lanthanide decorporation agents” (priority 2017, dated 2023).

Assay: 3,4,3-LI(1,2-HOPO)-excipient compatibility study (visual observation, HPLC purity and impurities on storage)
Format: physicochemical
Settings: for 3L1O Purity / Total Impurities: n = 1
Experimental: The objective of the analytical study described in this report was to evaluate the interactions between 3,4,3-L1(1,2-HOPO) and selected pharmaceutical excipients under 25° C./60% RH and 40° C./75% RH conditions over eight weeks. Physical appearance and potency of the different samples were assessed at T=0, 2, 4, and 8 weeks through visual observations and high performance liquid chromatography (HPLC) analysis.
The stability of 3,4,3-L1(1,2-HOPO) was tested according to the conditions listed below in TABLE 1.1. A11 test samples were stored throughout the study in 40 mL clear USP Type 1 glass vials (28 mm OD×95 mm height; 24 mm screw cap), wrapped in aluminum foil.
• Test Samples: Each test mixture was prepared by weighing the desired quantity of 3,4,3-L1(1,2-HOPO) and excipient (both screened through sieve #40) into vials. Both ingredients were first mixed using a clean glass rod and then vortexed. At each time interval, one vial was withdrawn from each drug-excipient series along with the corresponding placebo preparation and tested as described below.
b. Sample Characterization • Visual Observation: For each sample solution, visual observation consisted in recording color and physical form.
c. Chromatographic Assay and Purity Assessment • Standard Stock Solutions: For each standard stock solutions, the test article was weighed (200 mg) and dissolved by sonication into 30 mL of diluent (water:acetonitrile=90%:10%). After equilibration at room temperature, the volume of the standard solution was adjusted to 50 mL. Standard stock solutions were prepared in duplicates, working standard solutions were prepared by dilution of each stock with the diluent to the desired concentrations. • Calibration Standards: With each experiment, 5 calibration standard solutions at different concentrations were prepared from stock solutions using the diluent. Concentrations of the calibration standards were between 1.6 and 2.4 mg/mL. […] The vials were then mechanically shaken for 15 minutes, followed by centrifugation of the sample solutions (10,000 rpm, 10 min), and the supernatants were used for the assay. • Placebo Preparation: 25 mL of diluent was added to each of the placebo vial. The vials were then mechanically shaken for 15 minutes, followed by centrifugation of the sample solutions (10,000 rpm, 10 min), and the supernatants were used for the assay. Analytical Method: Instrument: Waters Alliance 2695 liquid chromatography system Column: Agilent, Eclipse XDB-C18, 4.6×150 mm, 5 μm. Mobile Phase A: 0.05% formic acid in 95% H2O: 5% ACN Mobile Phase B: 0.05% formic acid in acetonitrile (ACN)
Column Temperature: 25° C. Flow Rate: 1.0 mL/min. Injection Volume: 10 μL Detection: 250 nm Run Time: 50 min Diluent: 9:1 H2O:ACN Analysis Sequence:
• Suitability Requirements: There should be no interference from the diluent/blank at the retention times of 3,4,3-L1(1,2-HOPO) peaks. The relative standard deviation (% RSD) for five replicate system suitability injections should be below 2.0%. The response factor of the second standard should be within 95-105%. The correlation coefficient (R2) of the system linearity standards should be higher than 0.990. 5. Results

## O=C(NCCCN(CCCCN(CCCNC(=O)c1cccc(=O)n1O)C(=O)c1cccc(=O)n1O)C(=O)c1cccc(=O)n1O)c1cccc(=O)n1O [3,4,3-L1(1,2-HOPO)]
40° C./75% RH, 2 Weeks
  Unknown Impurity RRT 1.27: 0.36 % w/w
  Unknown Impurity RRT 1.3: 0.16 % w/w
  Unknown Impurity RRT 1.39: 0.05 % w/w
  Unknown Impurity RRT 1.41: 0.01 % w/w
  Unknown Impurity RRT 1.46: 0.07 % w/w
  Unknown Impurity RRT 2.31: 0.05 % w/w
  Unknown Impurity RRT 2.59: 0.04 % w/w
  Unknown Impurity RRT 2.8: 0.03 % w/w
  3L1O Purity: 98.62 % Area
  Total Impurities: 1.38 % Area
40° C./75% RH, 4 weeks
  Unknown Impurity RRT 0.24: 0.05 % w/w
  Unknown Impurity RRT 0.58: 0.09 % w/w
  Unknown Impurity RRT 0.6: 0.06 % w/w
  Unknown Impurity RRT 0.62: 0.07 % w/w
  Unknown Impurity RRT 0.81: 0.02 % w/w
  Unknown Impurity RRT 0.87: 0.16 % w/w
  Unknown Impurity RRT 0.89: 0.03 % w/w
  Unknown Impurity RRT 1.02: 0.03 % w/w
  Unknown Impurity RRT 1.11: 0.06 % w/w
  Unknown Impurity RRT 1.27: 0.26 % w/w
  Unknown Impurity RRT 1.3: 0.2 % w/w
  Unknown Impurity RRT 1.39: 0.74 % w/w
  Unknown Impurity RRT 1.41: 0.01 % w/w
  Unknown Impurity RRT 1.46: 0.08 % w/w
  Unknown Impurity RRT 1.72: 0.09 % w/w
  Unknown Impurity RRT 2.3: 0.04 % w/w
  Unknown Impurity RRT 2.59: 0.03 % w/w
  Unknown Impurity RRT 2.79: 0.02 % w/w
  3L1O Purity: 98.63 % Area
  Total Impurities: 1.37 % Area
40° C./75% RH, 8 Weeks
  Unknown Impurity RRT 0.24: 0.34 % w/w
  Unknown Impurity RRT 0.58: 0.2 % w/w
  Unknown Impurity RRT 0.59: 0.16 % w/w
  Unknown Impurity RRT 0.62: 0.18 % w/w
  Unknown Impurity RRT 0.81: 0.05 % w/w
  Unknown Impurity RRT 0.87: 0.18 % w/w
  Unknown Impurity RRT 0.89: 0.32 % w/w
  Unknown Impurity RRT 0.91: 0.11 % w/w
  Unknown Impurity RRT 0.95: 0.04 % w/w
  Unknown Impurity RRT 1.02: 0.09 % w/w
  Unknown Impurity RRT 1.12: 0.05 % w/w
  Unknown Impurity RRT 1.27: 0.4 % w/w
  Unknown Impurity RRT 1.31: 0.01 % w/w
  Unknown Impurity RRT 1.39: 0.08 % w/w
  Unknown Impurity RRT 1.41: 0 % w/w
  Unknown Impurity RRT 1.46: 0.12 % w/w
  Unknown Impurity RRT 1.72: 0.1 % w/w
  Unknown Impurity RRT 2.31: 0.03 % w/w
  Unknown Impurity RRT 2.6: 0.02 % w/w
  Unknown Impurity RRT 2.8: 0.02 % w/w
  3L1O Purity: 97.49 % Area
  Total Impurities: 2.51 % Area
Initial (T = 0)
  Unknown Impurity RRT 0.58: 0.05 % w/w
  Unknown Impurity RRT 0.59: 0.04 % w/w
  Unknown Impurity RRT 0.62: 0.04 % w/w
  Unknown Impurity RRT 0.87: 0.1 % w/w
  Unknown Impurity RRT 0.89: 0.02 % w/w
  Unknown Impurity RRT 1.03: 0.21 % w/w
  Unknown Impurity RRT 1.11: 0.04 % w/w
  Unknown Impurity RRT 1.27: 0.29 % w/w
  Unknown Impurity RRT 1.3: 0.21 % w/w
  Unknown Impurity RRT 1.39: 0.09 % w/w
  Unknown Impurity RRT 1.41: 0.01 % w/w
  Unknown Impurity RRT 1.46: 0.11 % w/w
  Unknown Impurity RRT 2.31: 0.05 % w/w
  3L1O Purity: 98.73 % Area
  Total Impurities: 1.27 % Area
